{"source": "patent US12275729B2", "about": "(Merck Sharp & Dohme LLC, priority 2017, dated 2025)", "data": [{"target": "IDO1 (Homo sapiens, UniProt P14902)", "sequence (P14902 whole entry)": "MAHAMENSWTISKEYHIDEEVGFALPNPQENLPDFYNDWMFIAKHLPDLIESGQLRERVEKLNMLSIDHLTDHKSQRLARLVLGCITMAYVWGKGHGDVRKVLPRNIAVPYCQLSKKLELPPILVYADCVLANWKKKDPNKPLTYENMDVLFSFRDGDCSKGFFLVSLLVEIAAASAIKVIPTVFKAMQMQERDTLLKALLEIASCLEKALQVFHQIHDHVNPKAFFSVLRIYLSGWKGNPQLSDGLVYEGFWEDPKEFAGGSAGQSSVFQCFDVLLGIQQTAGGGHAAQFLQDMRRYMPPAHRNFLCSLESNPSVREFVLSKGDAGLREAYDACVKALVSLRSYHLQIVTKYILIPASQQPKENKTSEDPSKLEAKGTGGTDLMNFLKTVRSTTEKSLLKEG", "experiment": "IDO1 Cellular Assay in HeLa Cells Stimulated with IFNγ", "assay_type": "cell-based", "details": "about 48 hours, read-out: Hela IC50", "procedure": "(§1) Biological Assays IDO1 Cellular Assay in HeLa Cells Stimulated with IFNγ\n(§2) HeLa cells were cultured in complete HeLa culture medium (90% EMEM, 10% heat-inactivated fetal bovine serum) and expanded to about 1×10^9 cells. The cells were then collected and frozen down at 1×10^7 cells/vial in 1 mL frozen medium (90% complete HeLa culture medium, 10% DMSO).\n(§3) Compounds to be tested were serially diluted in ten 3-fold steps in DMSO starting from 10 mM DMSO stocks in Echo low volume plate(s).\n(§4) Frozen HeLa cells were thawed and transferred into HeLa assay medium (99% complete HeLa culture medium, 1% Pen/Strep) with 20 mL medium/vial of cells. The cells were spun down at 250 g in a table top centrifuge for 5 min and suspended in same volume of HeLa assay medium. The cells were then counted and adjusted to a density of 2×10^5 cells/mL in HeLa assay medium. Sterile L-tryptophan were added to the cells with final concentration of 300 uM L-tryptophan. A small aliquot (2 mL/plate) of HeLa cells were set aside and were not treated with IFNγ, to serve as the Max-E control.\n(§5) HeLa cells with and without IFNγ were dispensed to the respective wells of 384-well assay plates containing the compounds. The plates were incubated for about 48 hours at a 37° C., 5% CO2 incubator. Afterwards, 12 μL of 0.5 M methyl isonipecotate in dimethyl sulfoxide were added into each well and the plates were sealed and incubated at 37° C. without CO2 overnight. The plates were centrifuged for 1 min at 200×g. The resulting fluorescence was measured in a Spectramax plate reader (Molecular Devices) with a 400 nm excitation filter and a 510 nm emission filter.\n(§6) Potencies were calculated by […] least squares fit to the four parameter logistic IC50 equation.", "units": {"IC50": "nM"}, "values": [{"smiles": "CC(NC(=O)c1ccc(F)cc1)c1ccc2c(n1)C(F)CCN2C(=O)C1CC1", "note": "(single isomer, unassigned) [Example 201, N-(1-(5-(cyclopropanecarbonyl)-8-fluoro-5,6,7,8-tetrahydro-1,5-naphthyridin-2-yl)ethyl)-4-fluorobenzamide]", "IC50": 186}, {"smiles": "C[C@H](C(=O)Nc1ccc(F)cc1)c1ccc2c(c1)CCCN2C(=O)CC(C)(C)O", "note": "[Example 71, (2S)-N-(4-fluorophenyl)-2-[1-(3-hydroxy-3-methylbutanoyl)-1,2,3,4-tetrahydroquinolin-6-yl]propanamide]", "IC50": 30.3}, {"smiles": "CC(C(=O)Nc1ccc(F)cc1)c1ccc2c(n1)CCCN2C(=O)C1CCOCC1", "note": "(centres unmarked) [Example 167, N-(4-fluorophenyl)-2-[5-(oxane-4-carbonyl)-5,6,7,8-tetrahydro-1,5-naphthyridin-2-yl]propanamide]", "IC50": 5.1}, {"smiles": "Cc1cnc(C(=O)N2CCCc3cc(C(C)C(=O)Nc4ccc(F)cc4)ccc32)s1", "note": "(centres unmarked) [Example 41, N-(4-fluorophenyl)-2-[1-(5-methyl-1,3-thiazole-2-carbonyl)-1,2,3,4-tetrahydroquinolin-6-yl]propanamide]", "IC50": 4.6}, {"smiles": "CC(C)CC(=O)NCc1ccc2c(c1)CCCN2C(=O)c1cccc(Cl)c1", "note": "[Example 17, N-{[1-(3-chlorobenzene-1-carbonyl)-1,2,3.4-tetrahydroquinolin-6-yl]methyl}-3-methylbutanamide]", "IC50": 702}, {"smiles": "O=C(NC1(c2ccc3c(n2)CCCN3C(=O)[C@H]2CCCO2)CC1)c1ccc(F)cc1", "note": "[Example 176, 4-fluoro-N-(1-{5-[(2R)-oxolane-2-carbonyl]-5,6,7,8-tetrahydro-1,5-naphthyridin-2-yl}cyclopropyl)benzamide]", "IC50": 9.7}, {"smiles": "Cc1noc(C(=O)N2CCCc3cc(C(C)C(=O)Nc4ccc(F)cc4)ccc32)n1", "note": "(centres unmarked) [Example 43, N-(4-fluorophenyl)-2-[1-(3-methyl-1H-1,2,4-oxadiazole-5-carbonyl)-1,2,3,4-tetrahydroquinolin-6-yl]propanamide]", "IC50": 4.2}, {"smiles": "CC(=O)N1CCCc2nc(C3(NC(=O)c4ccc(F)cc4)CC3)ccc21", "note": "[Example 174, N-[1-(5-acetyl-5,6,7,8-tetrahydro-1,5-naphthyridin-2-yl)cyclopropyl]-4-fluorobenzamide]", "IC50": 266}, {"smiles": "Cc1nc(C(=O)N2CCCc3cc(C(C)C(=O)Nc4ccc(F)cc4)ccc32)co1", "note": "(centres unmarked) [Example 45, N-(4-fluorophenyl)-2-[1-(2-methyl-1,3-oxazole-4-carbonyl)-1,2,3,4-tetrahydroquinolin-6-yl]propanamide]", "IC50": 5.9}, {"smiles": "C[C@H](C(=O)Nc1ccc(Cl)cc1)c1ccc2c(c1)CCCN2C(=O)c1cccc(Cl)c1", "note": "(single isomer, unassigned) [Example 56]", "IC50": 3.1}, {"smiles": "CC(NC(=O)c1ccc(F)cc1)c1ccc2c(n1)CCCN2C(=O)c1cccc(Cl)c1Cl", "note": "(centres unmarked) [Example 148, N-{1-[5-(2,3-dichlorobenzene-1-carbonyl)-5,6,7,8-tetrahydro-1,5-naphthyridin-2-yl]ethyl}-4-fluorobenzamide]", "IC50": 2.5}, {"smiles": "CC(C(=O)Nc1ccc(F)cc1)c1ccc2c(n1)CCCN2C(=O)C1CCOCC1", "note": "(centres unmarked) [Example 166, N-(4-fluorophenyl)-2-[5-(oxane-4-carbonyl)-5,6,7,8-tetrahydro-1,5-naphthyridin-2-yl]propanamide]", "IC50": 16.7}, {"smiles": "CC(NC(=O)c1ccc(Cl)cc1)c1ccc2c(n1)OCCN2C(=O)c1ccccc1", "note": "(racemic) [Example 253, N-(1-(1-benzoyl-2,3-dihydro-1H-pyrido[2,3-b][1,4]oxazin-6-yl)ethyl)-4-chlorobenzamide]", "IC50": 3.5}, {"smiles": "Cc1cc(C(=O)NCc2ccc3c(c2)CCCN3C(=O)c2cccc(Cl)c2)no1", "note": "[Example 22, N-{[1-(3-chlorobenzene-1-carbonyl)-1,2,3,4-tetrahydroquinolin-6-yl]methyl}-5-methyl-1,2-oxazole-3-carboxamide]", "IC50": 45}, {"smiles": "CC(C(=O)Nc1ccc(F)cc1)c1ccc2c(n1)CCCN2C(=O)C1CCCCO1", "note": "(single isomer, unassigned) [Example 160, N-(4-fluorophenyl)-2-[5-(oxane-2-carbonyl)-5,6,7,8-tetrahydro-1,5-naphthyridin-2-yl]propanamide]", "IC50": 8.2}, {"smiles": "CC(NC(=O)c1ccc(F)cc1)c1ccc2c(n1)C(F)(F)CCN2C(=O)C1CC1", "note": "(single isomer, unassigned) [Example 195, N-(1-(5-(cyclopropanecarbonyl)-8,8-difluoro-5,6,7,8-tetrahydro-1,5-naphthyridin-2-yl)ethyl)-4-fluorobenzamide]", "IC50": 9540}, {"smiles": "CC(C(=O)Nc1ccc(F)cc1)c1ccc2c(n1)CCCN2C(=O)[C@@H]1CCCO1", "note": "(single isomer, unassigned) [Example 163]", "IC50": 21.8}, {"smiles": "COCC(=O)N1CCCc2cc(C(C)C(=O)Nc3ccc(F)cc3)ccc21", "note": "(centres unmarked) [Example 59, N-(4-fluorophenyl)-2-[1-(methoxyacetyl)-1,2,3,4-tetrahydroquinolin-6-yl]propanamide]", "IC50": 20}, {"smiles": "Cn1ccc(C(=O)NCc2ccc3c(c2)CCCN3C(=O)c2cccc(Cl)c2)n1", "note": "[Example 25, N-{[1-(3-chlorobenzene-1-carbonyl)-1,2,3,4-tetrahydroquinolin-6-yl]methyl}-1-methyl-1H-pyrazole-3-carboxamide]", "IC50": 136}, {"smiles": "O=C(C1CCO1)N1CCCc2nc(C3(C(=O)Nc4ccc(F)cc4)CCC3)ccc21", "note": "(centres unmarked) [Example 182, N-(4-fluorophenyl)-1-[5-(oxetane-2-carbonyl)-5,6,7,8-tetrahydro-1,5-naphthyridin-2-yl]cyclobutane-1-carboxamide]", "IC50": 5.2}, {"smiles": "CC(NC(=O)c1ccc(F)cc1)c1ccc2c(n1)CCCN2c1cc(C(F)(F)F)ncn1", "note": "(centres unmarked) [Example 235, 4-fluoro-N-(1-{5-[6-(trifluoromethyl)pyrimidin-4-yl]-5,6,7,8-tetrahydro-1,5-naphthyridin-2-yl}ethyl)benzamide]", "IC50": 17}, {"smiles": "C[C@@H](NC(=O)c1ccc(F)cc1)c1ccc2c(n1)CCCN2C(=O)[C@H]1CCOC1", "note": "[Example 131, 4-fluoro-N-((R)-1-(5-((S)-tetrahydrofuran-3-carbonyl)-5,6,7,8-tetrahydro-1,5-naphthyridin-2-yl)ethyl)benzamide]", "IC50": 356}, {"smiles": "O=C(C1CCCCO1)N1CCCc2nc(C3(C(=O)Nc4ccc(F)cc4)CCC3)ccc21", "note": "(single isomer, unassigned) [Example 179, N-(4-fluorophenyl)-1-[5-(oxane-2-carbonyl)-5,6,7,8-tetrahydro-1,5-naphthyridin-2-yl]cyclobutane-1-carboxamide]", "IC50": 1.8}, {"smiles": "Cc1c(C(=O)N2CCCc3cc(C4(C(=O)Nc5ccc(F)cc5)CCC4)ccc32)cnn1C", "note": "[Example 111, 1-[1-(1,5-dimethyl-1H-pyrazole-4-carbonyl)-1,2,3,4-tetrahydroquinolin-6-yl]-N-(4-fluorophenyl)cyclobutane-1-carboxamide]", "IC50": 65.5}, {"smiles": "Cc1n[nH]c(C(=O)N2CCCc3cc(C4(C(=O)Nc5ccc(F)cc5)CCC4)ccc32)n1", "note": "[Example 109, N-(4-fluorophenyl)-1-[1-(3-methyl-1H-1,2,4-triazole-5-carbonyl)-1,2,3,4-tetrahydroquinolin-6-yl]cyclobutane-1-carboxamide]", "IC50": 16.2}, {"smiles": "CC(C)CC(=O)N1CCCc2cc(C(C)NC(=O)c3ccc(Cl)cc3)ccc21", "note": "(single isomer, unassigned) [Example 26, 4-chloro-N-{1-[1-(3-methylbutanoyl)-1,2,3,4-tetrahydroquinolin-6-yl]ethyl}benzamide]", "IC50": 4.3}, {"smiles": "O=C(NC1(c2ccc3c(n2)CCCN3C(=O)c2cccc(Cl)c2)CC1)c1ccc(F)cc1", "note": "[Example 171, N-{1-[5-(3-chlorobenzene-1-carbonyl)-5,6,7,8-tetrahydro-1,5-naphthyridin-2-yl]cyclopropyl}-4-fluorobenzamide]", "IC50": 2.3}]}, {"target": "IDO1 (Homo sapiens, UniProt P14902)", "experiment": "IDO1 Cellular Assay in HeLa Cells Stimulated with IFNγ", "assay_type": "cell-based", "details": "read-out: Hela IC50", "procedure": "as §1, §2, §3, §4, §5, §6", "units": {"IC50": "nM"}, "values": [{"smiles": "C[C@H](NC(=O)c1ccc(F)cc1)c1ccc2c(n1)CCCN2c1cccc(F)n1", "note": "[Example 387, (S)-4-fluoro-N-(1-(5-(6-fluoropyridin-2-yl)-5,6,7,8-tetrahydro-1,5-naphthyridin-2-yl)ethyl)benzamide]", "IC50": 25.7}, {"smiles": "COc1ccc(C(=O)NC(C)c2ccc3c(n2)CCCN3C(=O)OC2CC2)cc1", "note": "(centres unmarked) [Example 338, cyclopropyl 6-(1-(4-methoxybenzamido)ethyl)-3,4-dihydro-1,5-naphthyridine-1(2H)-carboxylate]", "IC50": 161}, {"smiles": "Cc1nccc(N2CCCc3nc(C(C)C(=O)Nc4ccc(F)cc4)ccc32)n1", "note": "(centres unmarked) [Example 371, N-(4-fluorophenyl)-2-(5-(2-methylpyrimidin-4-yl)-5,6,7,8-tetrahydro-1,5-naphthyridin-2-yl)propanamide]", "IC50": 2.72}, {"smiles": "O=C(OC1CC1)N1CCCc2nc(C3(C(=O)Nc4ccc(Cl)nc4)CCC3)ccc21", "note": "[Example 412, cyclopropyl 6-(1-((6-chloropyridin-3-yl)carbamoyl)cyclobutyl)-3,4-dihydro-1,5-naphthyridine-1(2H)-carboxylate]", "IC50": 0.92}, {"smiles": "Cc1nccc(N2CCCc3nc(C(C)C(=O)Nc4ccc(F)cc4)ccc32)n1", "note": "(centres unmarked) [Example 373, N-(4-fluorophenyl)-2-(5-(2-methylpyrimidin-4-yl)-5,6,7,8-tetrahydro-1,5-naphthyridin-2-yl)propanamide]", "IC50": 6.38}]}]}
